Data as given in US10688122B2, “Thiol and disulfide-containing agents for increasing meibomian gland lipid secretion” (Azura Ophthalmics Ltd., priority 2015, dated 2020).

Test system: Sebocytes SEBO662 (3D epithelium)
Test: Lipid synthesis/accumulation in 3D model culture of Sebocytes (Oil-red-O staining, lipid droplet surface area)
Format: cell-based, human
Conditions: for lipid accumulation, % of the control / stimulation of lipid accumulation (in words): 14 days incubation, 3D Sebocytes; for lipid accumulation, % of the control: Oil-red-O lipid droplet surface area; for effect on lipid synthesis in the 3D Sebocytes model (conclusion, in words): overall conclusion, no concentration stated
Description: Since secretory cells (meibocytes) of meibomian glands, share similarities with that of the secretory cells (sebocytes) of sebaceous glands, as can be validated from their similar structure, similar function and their joint embryologic development (Knop 2011_IOVS) the effect of Thiol containing Lipids on lipid production can be evaluated in a 3D model culture of Sebocytes. See also: Barrault 2012, Immortalized sebocytes can spontaneously differentiate into a sebaceous-like phenotype when cultured as a 3D epithelium, Exp. Derm, 21:299-319
The effect of different compounds on lipid synthesis was evaluated, in a 3D model culture of Sebocytes. Drug candidates were drugs containing S—H or disulfide: Selenium disulfide (SeS2 dispersed in CarboxymethylCellulose—CMC) as a positive control, Selenocysteine, Captopril, Disulfiram and lipids containing S—H or disulfide: Thioethanol, 12-Mercaptododecanoic acid. Since Sebocytes differentiation is associated with increased lipid synthesis and accumulation, evaluation of proliferation and differentiation was done by quantifying lipid accumulation in the 3D Sebocytes culture (human cell line—SEBO662). Lipid accumulation was evaluated by lipid staining with Oil red staining.
Sebocytes SEBO662 were cultured into a three dimension (3D) epithelium and differentiated to a sebaceous-like phenotype. The Sebocytes were treated or not (control) with the test compounds and incubated for 14 days. All experiments were performed 3 times. After incubation, tissues were snap-frozen. Formaldehyde-fixed cryo sections were stained using an Oil-red-O solution and counterstained using haematoxylin. For each test condition, the sections were observed using a light microscope equipped with a camera. Five pictures were taken per replicate, making 15 values per treatment condition. The lipid content in each sample was quantified by calculation of the lipid droplet surface area. Quantitative comparison of all data points between lipid's droplet surface area of tested compounds versus control was performed

Row | Compound | lipid accumulation, % of the control (0.1 μM) [%] | lipid accumulation, % of the control (1 μM) [%] | effect on lipid synthesis in the 3D Sebocytes model (conclusion, in words) | lipid accumulation, % of the control (10 μM) [%] | lipid accumulation, % of the control (100 μM) [%] | stimulation of lipid accumulation (in words) (1000 μM) | lipid accumulation, % of the control (0.01 μM) [%] | stimulation of lipid accumulation (in words) (10 μM)
1 | O=C(O)CCCCCCCCCCCS [12-Mercaptododecanoic acid] | 385 | 349 | significant stimulating effect | – | – | – | – | –
2 | C[C@H](CS)C(=O)N1CCC[C@H]1C(=O)O [Captopril] | – | 240 | significant stimulating effect | 173 | – | – | – | –
3 | CCN(CC)C(=S)SSC(=S)N(CC)CC [Disulfiram] | – | – | significant stimulating effect | – | 199 | no stimulation effect | – | –
4 | S=[Se]=S [Selenium disulfide] | 348 | – | significant stimulating effect | – | – | – | 282 | –
5 | N[C@@H](C[SeH])C(=O)O [Selenocysteine] | – | 296 | significant stimulating effect | – | – | – | – | no stimulation effect
6 | OCCS [Thioethanol] | 251 | 228 | significant stimulating effect | – | – | – | – | –
